The nature of data set [1]: Heat stress stability at 70° C. for three days, HPLC with ELSD detection. The format is physicochemical. As for the experimental part: Samples of amorphous squalamine dilactate and squalamine dilactate recrystallized from ethanol as described in Example 5 were placed in scintillation vials and heated in an oven at 70° C. for three days. A portion of each heat stressed sample was then analyzed by HPLC with ELSD detection and the results compared with the HPLC analysis of unstressed material.

Data set [2] is described as follows: Accelerated stability study (temperature-based, four weeks) of four salt forms, reversed-phase HPLC of o-phthaldialdehyde derivatized samples. The format is physicochemical. As for the experimental part: An accelerated stability study (temperature-based) lasting four weeks was performed on squalamine in four different salt forms. The four salt forms were: dihydrochloride, diacetate, dilactate and D-digluconate. The samples were subjected to temperatures of 40° C., 60° C. and 80° C. The following table summarizes the results of % purity of main peak, squalamine, based on total integrated area. The analysis was performed using reversed-phase HPLC of o-phthaldialdehyde derivatized samples.

The subject of data set [3] is tails of CD-1®BR mice. Nature of the data set: Local irritancy of 5-day repeated intravenous injections of squalamine salt forms in mice. The format is in vivo. From the text:
A Study of Local Irritancy of 5-Day Repeated Intravenous Injections of Different Salt Forms (Ditrifluoroacetate, Dilactate, Digluconate, Diacetate) of MSI-1256 (Squalamine) in Mice
Objective: To determine the local irritancy of 5-day repeated daily intravenous doses of squalamine salt forms in tails of CD-1®BR mice.
Material and Methods: (Animals): Forty-eight male CD-1®BR mice (Charles River Lab). Mean body weight at study initiation was 20.6 gm. (Housing Environment): Mice were housed as groups (maximum 10 mice/box) in plastic mouse boxes with hardwood chip bedding and wire lids. They had access to food (Purina Mouse Chow) and water in bottles ad lib. The boxes were housed in isolator racks that were supplied with one-pass through filtered room air. The room in which the animals were housed was on a 12-hour on/12-hour off light cycle and had controlled temperature (range: 67-76° F.) and humidity (range: 40-70% relative humidity).
Solution prep: A 0.36 mg/mL solution of squalamine ditrifluoroacetate salt (equivalent to 0.25 mg/mL squalamine ditrifluroacetate active moiety) was prepared in D5W. A 0.31 mg/mL solution of squalamine diacetate salt (equivalent to 0.25 mg/mL squalamine diacetate active moiety) was prepared in D5W. A 0.33 mg/mL solution of squalamine dilactate salt (equivalent to 0.25 mg/mL squalamine dilactate active moiety) was prepared in D5W. A 0.45 mg/mL solution of squalamine digluconate salt (equivalent to 0.25 mg/mL squalamine digluconate active moiety) was prepared in D5W. A 1.0 mg/mL solution of magainin-2-amide (positive control) was prepared in D5W. Protocol: Mice were randomly assigned to six groups (8 mice/group) and received daily intravenous (i.v.) injections of solutions of D5W or squalamine salts in the tail vein for five days (study days 0, 1, 2, 3, and 4). […] One group of eight mice received test article magainin-2-amide (10 mg/kg/day; 10 mL/kg/day of a 1 mg/mL solution), which was previously determined to be local vein irritant, as a positive control. Mice were not injected with test article if severity of bruising or swelling (edema) warranted the omission of the injection. Survival was monitored and clinical signs were observed daily for five days of administration of squalamine salts and four days after the last dose (Study Day 8). Clinical signs of irritancy, edema, and bruising were made on days 1, 2, 3, and 4 approximately 24-hours after each injection and immediately prior to that day's injection. The pHs of the solutions of all test articles except magainin-2-amide were checked on Study Day 3. (The same solutions were used throughout the study so a similar pH on all study days may be assumed).

[4] abbreviates: Heat Stressed, 70° C. for three days.

For the compound `CC(C)[C@@H](CC[C@@H](C)[C@H]1CC[C@H]2[C@@H]3[C@H](O)C[C@H]4C[C@@H](NCCCNCCCCN)CC[C@]4(C)[C@H]3CC[C@]12C)OS(=O)(=O)O.C[C@H](O)C(=O)O.C[C@H](O)C(=O)O` [Crystallized Squalamine], the “change in the percentage of the lactylamide impurity when heat stressed” value in data set [1] (70° C. for three days vs unstressed) is “no significant increase”. Besides, in data set [1] (setting [4]), the “24 S Isomer” value came to 0.714%, the Lacrylamide was found to be 0.087% and the Squalamine came out at 99.168%. Moreover, in data set [1] (Unstressed), the “24 S Isomer” value was 0.715%, the Lacrylamide is reported as 0.070% and the Squalamine amounted to 99.187%.
In the case of squalamine diacetate, the “% purity of main peak, squalamine, based on total integrated area” value (shortened to “% purity of main peak, squalamine, based”) in data set [2] (4w 40° C.) was found to be 87.3%; in data set [2] (4w 60° C.), 81.5%; in data set [2] (4w 80° C.), 62.9%; in data set [2] (T = 0), 94.4%. For the same compound, in data set [3] (mouse, in vivo), the “necrotic mouse tail (mice affected/group)” value was 1/8.
Turning to squalamine digluconate, the “% purity of main peak, squalamine, based” value in data set [2] (4w 40° C.) is given as 72.6%; in data set [2] (4w 60° C.), 60.7%; in data set [2] (4w 80° C.) it was 4.9%; in data set [2] (T = 0) it was 87.8%. The “tolerance of treatment (swelling, bruising, irritation of tails)” value in data set [3] (2.5 mg/kg/day i.v. tail vein for five days, 0.25 mg/mL solutions in D5W, compared with squalamine diacetate and ditrifluoroacetate) is on record as “tolerated slightly better”.
Turning to squalamine dilactate, the “% purity of main peak, squalamine, based” value is 80.9% in data set [2] (4w 40° C.), 80.6% in data set [2] (4w 60° C.), 70.9% in data set [2] (4w 80° C.) and 91.8% in data set [2] (T = 0). Further, the “stability under increasingly severe conditions” value in data set [2] (four weeks at 40-80° C., compared to the diacetate and digluconate salts) was “surprisingly stable”.
Turning to squalamine ditrifluoroacetate, in data set [3] (mouse, in vivo), the “mouse tail fell off (mice affected/group)” value was 1/8 and the “necrotic mouse tail (mice affected/group)” value is 1/8.
